Legend:
H4-APP cells [1] = assay: Caspase-3 activation by Western blot (ratio of caspase-3 fragment to FL-caspase-3) in H4-APP cells; type: cell-based, human
Description: (§1) Cell lines. We used naive H4 human neuroglioma cells stably transfected to express full-length APP (FL-APP; H4-APP cells) in the studies. The cells were cultured in DMEM (high glucose) containing 9% heat inactivated fetal calf serum, 100 U/ml penicillin, 100 μg/ml streptomycin, 2 mM L-glutamine, and 200 μg/ml G418.
(§2) Cell treatment. Twenty-one percent O2, 5% CO2, and 2% isoflurane were delivered from an anesthesia machine to a sealed plastic box in a 37° Celsius incubator containing six-well plates seeded with one million cells in 1.5 ml of cell culture media as described in our previous studies (Xie et al., 2006a,b, 2007). Date infrared gas analyzer (Puritan-Bennett, Tewksbury, Mass.) was used to continuously monitor the delivered CO2, O2, and isoflurane concentrations. We treated the cells with 2% isoflurane for 6 h, during which time the cells were incubated in serum-free media. In the interaction studies, the cells were treated with memantine (4 μM) 1 h before the treatment of 2% isoflurane. Low-calcium condition was created by using a calcium-free cell culture media (Invitrogen, Carlsbad, Calif.) and by adding EDTA (10 mM; Sigma-Aldrich, St. Louis, Mo.), a chelating compound (Rekasi et al., 2005), or BAPTA (10 μM; Sigma-Aldrich), an intracellular calcium chelator, to the media. […] These siRNAs and control siRNAs (3′[…]) were obtained from Dharmacon (Lafayette, Colo.). siRNAs were transfected into cells by using electroporation (Amaxa Biosystems, Gaithersburg, Md.) as described by Xie et al. (2005b). Briefly, we mixed 1 million cells, 100 μl of AMAXA electroporation transfection solution, and 10 μl of 20 μM siRNA together and then used the C-9 program in an AMAXA electroporation device for cell transfection. The transfected cells were then placed in one of the six-well plates containing 1.5 ml of cell culture media. The pretreated cells were then exposed to the isoflurane treatment.
Cell lysis and protein amount quantification. Cell pellets were detergent-extracted on ice using immunoprecipitation buffer (10 mM Tris-HCl, pH 7.4, 150 mM NaCl, 2 mM EDTA, 0.5% Nonidet P-40) plus protease inhibitors (1 μg/ml aprotinin, 1 μg/ml leupeptin, 1 μg/ml pepstatin A). The lysates were collected, centrifuged at 12,000 rpm for 10 min, and quantified for total proteins by a BCA protein assay kit (Pierce Technology Corporation, Iselin, N.J.).
Western blot analysis. The harvested cells and brain tissues were subjected to Western blots as described by Xie et al. (2005a). A caspase-3 antibody (1:1000 dilution; Cell Signaling Technology, Beverly, Mass.) was used to recognize caspase-3 fragment (17-20 kDa) resulting from cleavage at asparate position 175 and FL-caspase-3 (35-40 kDa). Caspase-3 cleavage (activation) is based on the ratio of caspase-3 fragment to FL caspase-3. Antibody anti-b-actin was used to visualize b-actin (42 kDa). Antibodies for IP3 receptor (1:1000; Millipore Bioscience Research Reagents, Temecula, Calif.), NR1 (1:1000; PhosphoSolutions, Aurora, Colo.), and SERCA1 (1:1000; Abcam, Cambridge, Mass.) were used to recognize IP3 receptor (250 kDa), NR1 (120 kDa), and SERCA1 (110 kDa). The quantitation of Western blots was performed as described by Xie et al. (2005a). Briefly, the intensity of signals was analyzed by using a Bio-Rad (Hercules, Calif.) image program (Quantity One) and an NIH Image version 1.37v. We quantified the Western blots using two steps.

MTT cell viability assay = type: cell-based, human; conditions: human, MTT
Description: as §1, §2

caspase-3 = assay: Caspase-3 activation in brain tissue of naive mice (Western blot); type: in vivo
Description: Mice treatment. The animal protocol was approved by the Massachusetts General Hospital Standing Committee on Animals Sixteen female C57BL/6 mice (5-6 months of age) (The Jackson Laboratory, Bar Harbor, Me.) were randomly assigned to an anesthesia or control group. […] This isoflurane treatment allows the mice to have sufficient exposure to isoflurane while avoiding excessive accumulation of CO2. The control mice (n=8) received 100% oxygen at an identical flow rate for 6 h and 20 min in an identical chamber. The mice breathed spontaneously, and anesthetic and oxygen concentrations were measured continuously (Datex, Puritan-Bennett; Ohmeda PPD, Madison, Wis.). Rectal temperature was measured intermittently, and the temperature of the anesthetizing chamber was controlled to maintain rectal temperature of the animals at 37±0.5° C. Mean arterial blood pressure was measured noninvasive using a tail cuff (CODA2 system; Kent Scientific Corporation, Torrington, Conn.) in the anesthetized mice. […] Mice were killed by decapitation at the end of the experiments, the brain was removed rapidly, and the prefrontal cortex was dissected out and frozen in liquid nitrogen for subsequent processing for the determination of caspase-3activation. […] Brain tissue lysis and protein amount quantification. […] The lysates were collected, centrifuged at 12,000 rpm for 10 min, and quantified for total proteins by a BCA protein assay kit (Pierce Technology Corporation). Western blot analysis. The harvested cells and brain tissues were subjected to Western blots as described by Xie et al. (2005a). […] Caspase-3 cleavage (activation) is based on the ratio of caspase-3 fragment to FL caspase-3. Antibody anti-b-actin was used to visualize b-actin (42 kDa). […] The quantitation of Western blots was performed as described by Xie et al. (2005a). Briefly, the intensity of signals was analyzed by using a Bio-Rad (Hercules, Calif.) image program (Quantity One) and an NIH Image version 1.37v. We quantified the Western blots using two steps. […] Data were expressed as mean±SD. […]

H4-APP cells [2] = assay: Cell apoptosis assay (cell death detection ELISA); type: cell-based, human
Description: as §1, §2

H4-APP cells [3] = assay: Cytosolic calcium measurement (Fura-2 ratio); type: cell-based, human
Description: Cytosolic calcium measurement. Cytosolic calcium levels were determined as described by Wei et al. (2008). Specifically, H4-APP cells were loaded with Fura-2 (Invitrogen), perfused with Tyrode buffer, and [Ca2+]i transients were recorded as changes in Fura-2 ratio (340/380 nm) using a spectrofluoroscope system (Ionoptix, Milton, Mass.).

[4] = Blood pressure and blood gas of anesthetized mice; type: in vivo; conditions: 1.4% isoflurane for 2 h; data not shown
Description: Mice treatment. The animal protocol was approved by the Massachusetts General Hospital Standing Committee on Animals Sixteen female C57BL/6 mice (5-6 months of age) (The Jackson Laboratory, Bar Harbor, Me.) were randomly assigned to an anesthesia or control group. […] This isoflurane treatment allows the mice to have sufficient exposure to isoflurane while avoiding excessive accumulation of CO2. The control mice (n=8) received 100% oxygen at an identical flow rate for 6 h and 20 min in an identical chamber. The mice breathed spontaneously, and anesthetic and oxygen concentrations were measured continuously (Datex, Puritan-Bennett; Ohmeda PPD, Madison, Wis.). Rectal temperature was measured intermittently, and the temperature of the anesthetizing chamber was controlled to maintain rectal temperature of the animals at 37±0.5° C. Mean arterial blood pressure was measured noninvasive using a tail cuff (CODA2 system; Kent Scientific Corporation, Torrington, Conn.) in the anesthetized mice. […] Mice were killed by decapitation at the end of the experiments, the brain was removed rapidly, and the prefrontal cortex was dissected out and frozen in liquid nitrogen for subsequent processing for the determination of caspase-3activation.

H4-APP cells [5] = assay: MTT cell viability assay; type: cell-based, human
Description: as §1, §2

[6] = isoflurane plus control siRNA, control = 100%
[7] = memantine 4 μM alone vs control conditions

O=C(O)CN(CC(=O)O)c1ccccc1OCCOc1ccccc1N(CC(=O)O)CC(=O)O [BAPTA, 1,2-bis (o-aminophenoxy)ethane-N,N,N′,N′-tetraacetic acid]
caspase-3 activation, BAPTA plus isoflurane (H4-APP cells [1]; BAPTA 10 μM plus 2% isoflurane for 6 h, control = 100%): 154% | caspase-3 activation, BAPTA alone (H4-APP cells [1]; BAPTA plus control condition vs DMSO plus control condition): does not induce caspase-3 activation

O=C(O)CN(CCN(CC(=O)O)CC(=O)O)CC(=O)O [EDTA, ethylenediaminetetraacetic acid]
reduction in caspase-3 activation compared with isoflurane plus normal calcium (H4-APP cells [1]; isoflurane plus low calcium and EDTA (10 mM), H4-APP cells): 68%

FC(F)OC(Cl)C(F)(F)F (centres unmarked) [isoflurane]
caspase-3 activation compared with control conditions (H4-APP cells [1]; 2% isoflurane for 6 h alone, H4-APP cells, control = 100%): 184% | caspase-3 activation, isoflurane plus DMSO (BAPTA experiment) (H4-APP cells [1]; 2% isoflurane for 6 h plus DMSO, control = 100%): 185% | caspase-3 activation, isoflurane plus control siRNA (NR1 experiment) (H4-APP cells [1]; 2% isoflurane for 6 h plus control siRNA, control = 100%): 168% | caspase-3 activation, isoflurane plus control siRNA (IP3 receptor experiment) (H4-APP cells [1]; [6]): 292% | caspase-3 activation, isoflurane plus control siRNA (SERCA1 experiment) (H4-APP cells [1]; [6]): 194% | viability at 6 h, 2 % (MTT cell viability assay; 2% isoflurane for 6 h, percent of control, read-out: cell viability, isoflurane alone): 74% | cytotoxicity at 6 h, 2 % (MTT cell viability assay; 2% isoflurane for 6 h vs control conditions, read-out: reduction in cell viability): 26% | caspase-3 activation in mouse brain compared with control condition (caspase-3; three sessions of 1.4% isoflurane for 2 h, prefrontal cortex, control = 100%): 177% | cell apoptosis compared with control conditions (H4-APP cells [2]; 2% isoflurane for 6 h alone, control = 100%): 137% | cytosolic calcium levels, isoflurane (H4-APP cells [3]; isoflurane 1 mM or 3.5%): can elevate cytosolic calcium levels | effect on blood pressure and venous blood gas [4]: did not significantly affect blood pressure and venous blood gas

CC12CC3CC(C)(C1)CC(N)(C3)C2 [memantine]
caspase-3 activation, memantine plus isoflurane (H4-APP cells [1]; memantine 4 μM 1 h before 2% isoflurane for 6 h, H4-APP cells, control = 100%): 101% | caspase-3 activation, memantine alone (H4-APP cells [1]; memantine 4 μM alone vs control conditions, H4-APP cells): did not induce caspase-3 activation | cell viability, memantine alone (H4-APP cells [5]; [7]): had no effects on either cell viability or apoptosis | cell viability, memantine plus isoflurane (H4-APP cells [5]; memantine 4 μM plus 2% isoflurane for 6 h, percent of control, MTT): 95% | caspase-3 activation in mouse brain, memantine plus isoflurane (caspase-3; memantine 20 mg/kg i.p. 1 h before three sessions of 1.4% isoflurane for 2 h, control = 100%): 97% | caspase-3 activation in mouse brain, memantine alone (caspase-3; memantine 20 mg/kg intraperitoneal alone vs control condition): did not induce caspase-3 activation | cell apoptosis, memantine alone (H4-APP cells [2]; [7]): had no effects on either cell viability or apoptosis | cell apoptosis, memantine plus isoflurane (H4-APP cells [2]; memantine 4 μM plus 2% isoflurane for 6 h, control = 100%): 99% | isoflurane-induced elevation in cytosolic calcium levels, memantine pretreatment (H4-APP cells [3]; pretreated with memantine 4 μM, then isoflurane 1 mM or 3.5%): isoflurane failed to increase cytosolic calcium levels
